From ChEMBL document CHEMBL3860073, “Thermodynamic properties of leukotriene A4 hydrolase inhibitors” (Bioorg Med Chem, 2016)

Tests used:
[1] = biological target: T1, Leukotriene A-4 hydrolase (Homo sapiens, UniProt P09960); experiment: Binding affinity to human C-terminal his6-tagged/N-terminal T7 gene leader sequence-tagged LTA4H at 15 degC by ITC method
T1 sequence (P09960 whole entry): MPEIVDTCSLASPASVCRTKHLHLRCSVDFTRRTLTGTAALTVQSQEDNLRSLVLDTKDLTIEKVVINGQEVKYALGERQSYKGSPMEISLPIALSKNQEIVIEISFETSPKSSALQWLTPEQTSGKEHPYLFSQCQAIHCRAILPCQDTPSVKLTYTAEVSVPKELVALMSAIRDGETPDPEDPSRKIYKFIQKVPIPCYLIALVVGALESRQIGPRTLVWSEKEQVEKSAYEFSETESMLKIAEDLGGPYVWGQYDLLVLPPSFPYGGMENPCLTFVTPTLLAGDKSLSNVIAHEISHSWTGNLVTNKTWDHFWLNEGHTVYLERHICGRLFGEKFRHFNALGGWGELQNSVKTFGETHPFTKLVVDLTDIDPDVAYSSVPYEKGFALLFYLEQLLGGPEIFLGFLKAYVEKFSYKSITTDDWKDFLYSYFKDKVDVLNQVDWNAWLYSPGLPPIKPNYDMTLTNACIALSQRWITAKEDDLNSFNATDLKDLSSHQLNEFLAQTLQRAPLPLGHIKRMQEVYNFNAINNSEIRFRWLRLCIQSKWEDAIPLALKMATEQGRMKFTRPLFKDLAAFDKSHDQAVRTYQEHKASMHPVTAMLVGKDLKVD

[2] = biological target: T1, Leukotriene A-4 hydrolase; experiment: Competitive inhibition of human C-terminal his6-tagged/N-terminal T7 gene leader sequence-tagged LTA4H using varying levels of L-arginine-7-amino-4-Methylcoumarine as substrate preincubated for 30 mins followed by substrate addition measured for 30 mins by fluorescence assay
[3] = biological target: T2, Leukotriene A-4 hydrolase (Homo sapiens) (UniProt P09960)
T2 sequence (whole entry): T1 sequence (P09960 whole entry)

[4] = biological target: T1, Leukotriene A-4 hydrolase; experiment: Binding affinity to human C-terminal his6-tagged/N-terminal T7 gene leader sequence-tagged LTA4H at 35 degC by ITC method
[5] = biological target: T2, Leukotriene A-4 hydrolase (Homo sapiens); experiment: Binding affinity to human C-terminal His6-tagged/N-terminal T7 gene leader sequence-tagged LTA4H assessed as change in melting temperature at 0.5 mM by circular dichroism spectroscopic analysis
[6] = biological target: T1, Leukotriene A-4 hydrolase; experiment: Binding affinity to human C-terminal his6-tagged/N-terminal T7 gene leader sequence-tagged LTA4H at 25 degC by ITC method
[7] = biological target: T1, Leukotriene A-4 hydrolase; experiment: Inhibition of human C-terminal his6-tagged/N-terminal T7 gene leader sequence-tagged LTA4H using L-arginine-7-amino-4-Methylcoumarine as substrate preincubated for 30 mins followed by substrate addition measured for 30 mins by fluorescence assay
[8] = biological target: T2, Leukotriene A-4 hydrolase (Homo sapiens); remark: listed apart in the source
Description: Binding affinity to human C-terminal His6-tagged/N-terminal T7 gene leader sequence-tagged LTA4H assessed as change in melting temperature at 1 mM by circular dichroism spectroscopic analysis

[9] = biological target: T2, Leukotriene A-4 hydrolase (Homo sapiens); settings: 40 uM

Compound | Kd [1] | Ki [2] | ΔTm [3] | Kd [4] | ΔTm [5] | Kd [6] | IC50 [7] | ΔTm [8] | ΔTm [9]
CN(C)CCOc1ccc(Oc2ccccc2)cc1 | 0.06 µM | 0.16 µM | 5 °C | 0.27 µM | 7.8 °C | 0.27 µM | 0.06 µM | – | –
C[C@H](CS)C(=O)N1CCC[C@H]1C(=O)O [CAPTOPRIL] | 6.37 µM | 3.7 µM | 1.5 °C | 8.47 µM | – | 6.25 µM | 3.6 µM | 0.7 °C | –
CN(CCCOc1ccc(Cc2ccccc2)cc1)CCC(=O)O | – | – | 5.4 °C | – | 8.9 °C | – | – | – | –
CC(C)C[C@H](NC(=O)[C@@H](O)[C@H](N)Cc1ccccc1)C(=O)O | – | – | 5.1 °C | – | – | – | – | 5.2 °C | –
Nc1nc(-c2ccc(Cc3ccccc3)cc2)cs1 | 0.13 µM | 0.36 µM | 5.3 °C | 0.22 µM | – | 0.31 µM | 0.4 µM | – | 5.3 °C
